Experimental data reported in US20240092799A1, “MNK INHIBITORS” (Hepagene Therapeutics (HK) Limited, priority 2020, published 2024).

Molecular target: MNK2 (Homo sapiens (Human), UniProt Q9HBH9)
Assay: MNK Biochemical Enzymatic Assay (ADP-Glo), MNK2 binding assay
Description: MNK Biochemical Enzymatic Assay. This protocol establishes the binding assays for MNK1 and MNK2 using ADP-Glo assay. MNK phosphorylates the substrate and converts ATP to ADP, which was detected by Envision and used to reflect the reminding activity of MNK. Reagents and equipment used in the assay are listed below, followed by the protocol.
• a) Add 50 μL compound to 384-well dilution plate • b) Dilute compound 1:3 in succession in DMSO for each column for 10+0 pts (refer to dilution plate map) • c) Transfer 0.1 μL diluted compound solution in each row to 384 assay plate using Echo, each column containing 2 replicates (refer to assay plate map) • d) Add 5 μL enzyme working solution to 384-well assay plate, centrifuge 1000 RPM for 1 min • e) Incubate at 25° C. for 15 min • f) Add 5 μL substrate working solution to initiate reaction • g) Incubate at 25° C. for 60 min • h) Add 10 μL ADP Glo reagent, centrifuge 1000 RPM for 1 min • i) Incubate at 25° C. for 60 min • j) Add 20 μL kinase detection reagent, centrifuge 1000 RPM for 1 min • k) Incubate at 25° C. for 60 min • l) Read on Envision for US LUM as RLU • m) Data analysis: IC50s were determined based on a non-linear regression analysis of data collected.

Chain of MNK2 (Q9HBH9 whole entry): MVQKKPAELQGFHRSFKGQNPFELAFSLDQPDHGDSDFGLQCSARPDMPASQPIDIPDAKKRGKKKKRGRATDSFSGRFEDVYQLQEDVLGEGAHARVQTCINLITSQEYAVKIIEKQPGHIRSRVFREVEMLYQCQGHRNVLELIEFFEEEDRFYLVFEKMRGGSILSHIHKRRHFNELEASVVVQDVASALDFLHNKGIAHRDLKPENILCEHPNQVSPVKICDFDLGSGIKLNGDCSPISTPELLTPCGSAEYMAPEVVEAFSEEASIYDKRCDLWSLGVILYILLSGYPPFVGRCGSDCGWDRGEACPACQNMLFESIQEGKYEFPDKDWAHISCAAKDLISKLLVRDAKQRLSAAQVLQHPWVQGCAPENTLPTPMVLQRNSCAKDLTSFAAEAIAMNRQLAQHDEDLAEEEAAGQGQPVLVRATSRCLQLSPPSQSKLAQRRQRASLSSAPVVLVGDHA

Row | SMILES | IC50
1 | Cc1cc(Nc2cc(N[C@H]3CC[C@@H](O)C3)ncn2)[n+]([O-])c2c1C(=O)NC21CCCCC1 (relative stereo) [Compound XXIX-Y, 2′-((6-((cis-3-hydroxycyclopentyl)amino)pyrimidin-4-yl)amino)-4′-methyl-5′-oxo-5′,6′-dihydrospiro[cyclohexane-1,7′-pyrrolo[3,4-b]pyridine] 1′-oxide] | 10 to 100 nM
2 | Cc1cc(-c2cc(-c3cc(N)ncn3)no2)cc2c1C(=O)NC21CCCCC1 [Compound VII, 6′-(3-(6-Aminopyrimidin-4-yl)isoxazol-5-yl)-4′-methylspiro[cyclohexane-1,1′-isoindolin]-3′-one] | > 1000 nM
3 | Nc1cc(Nc2cc3c(s2)C(=O)NC32CCNCC2)ncn1 [Compound VIII-A, 2′-((6-aminopyrimidin-4-yl)amino)spiro[piperidine-4,4′-thieno[2,3-c]pyrrol]-6′(5′H)-one] | 10 to 100 nM
4 | Nc1cc(Nc2cc3c(s2)C(=O)NC32CCCCC2)ncn1 [Compound X, 2′-((6-Aminopyrimidin-4-yl)amino)spiro[cyclohexane-1,4′-thieno[2,3-c]pyrrol]-6′(5′H)-one] | 10 to 100 nM
5 | O=C1NC2(CCCCC2)c2cc(Nc3ccncn3)sc21 [Compound X-A, 2′-(pyrimidin-4-ylamino)spiro[cyclohexane-1,4′-thieno[2,3-c]pyrrol]-6′(5′H)-one] | 10 to 100 nM
6 | O=C1NC2(CCCCC2)c2cc(Nc3ncnc4sccc34)sc21 [Compound X-B, 2′-(thieno[2,3-d]pyrimidin-4-ylamino)spiro[cyclohexane-1,4′-thieno[2,3-c]pyrrol]-6′(5′H)-one] | 100 to 1000 nM
7 | Cc1c(N)ncnc1Nc1cc2c(s1)C(=O)NC21CCCCC1 [Compound X-D, 2′-((6-amino-5-methylpyrimidin-4-yl)amino)spiro[cyclohexane-1,4′-thieno[2,3-c]pyrrol]-6′(5′H)-one] | 10 to 100 nM
8 | Nc1cc(Nc2cc3c(s2)C(=O)NC32CCCC2)ncn1 [Compound X-E, 2′-((6-aminopyrimidin-4-yl)amino)spiro[cyclopentane-1,4′-thieno[2,3-c]pyrrol]-6′(5′H)-one] | 10 to 100 nM
9 | Nc1cc(Nc2cc3n(n2)C2(CCCCC2)NC3=O)ncn1 [Compound XI, 2′-((6-Aminopyrimidin-4-yl)amino)spiro[cyclohexane-1,6′-imidazo[1,5-b]pyrazol]-4′(5′H)-one] | > 1000 nM
10 | CSc1ncc2c(-c3cc4c(s3)C(=O)NC43CCCCC3)n[nH]c2n1 [Compound XIX, 2′-(6-(Methylthio)-1H-pyrazolo[3,4-d]pyrimidin-3-yl)spiro[cyclohexane-1,4′-thieno[2,3-c]pyrrol]-6′(5′H)-one] | 100 to 1000 nM
11 | Cc1cc(-c2cc(-c3cc(N)ncn3)no2)c(=O)n2c1C(=O)NC21CCCCC1 [Compound XVIII, 6′-(3-(6-Aminopyrimidin-4-yl)isoxazol-5-yl)-8′-methyl-2′H-spiro[cyclohexane-1,3′-imidazo[1,5-a]pyridine]-1′,5′-dione] | > 1000 nM
12 | Nc1ncnc(Nc2cc3c(s2)C(=O)NC32CCCCC2)c1Cl [Compound XX, 2′-((6-Amino-5-chloropyrimidin-4-yl)amino)spiro[cyclohexane-1,4′-thieno[2,3-c]pyrrol]-6′(5′H)-one] | 10 to 100 nM
13 | O=C1NC2(CCCCC2)c2cc(Nc3ncnc(NC(=O)C4CC4)c3Cl)sc21 [Compound XX-7, N-(5-Chloro-6-((6′-oxo-5′,6′-dihydrospiro[cyclohexane-1,4′-thieno[2,3-c]pyrrol]-2′-yl)amino)pyrimidin-4-yl)cyclopropanecarboxamide] | 100 to 1000 nM
14 | O=C1NC2(CCCCC2)c2cc(Nc3cc(NC(=O)C4CC4)ncn3)sc21 [Compound XX-A, N-(6-((6′-Oxo-5′,6′-dihydrospiro[cyclohexane-1,4′-thieno[2,3-c]pyrrol]-2′-yl)amino)pyrimidin-4-yl)cyclopropanecarboxamide] | 10 to 100 nM
15 | COc1c(NC(=O)C2CC2)ncnc1Nc1cc2c(s1)C(=O)NC21CCCCC1 [Compound XX-B, N-(5-Methoxy-6-((6′-oxo-5′,6′-dihydrospiro[cyclohexane-1,4′-thieno[2,3-c]pyrrol]-2′-yl)amino)pyrimidin-4-yl)cyclopropanecarboxamide] | 100 to 1000 nM
16 | Cc1c(NC(=O)C2CC2)ncnc1Nc1cc2c(s1)C(=O)NC21CCCCC1 [Compound XX-C, N-(5-Methyl-6-((6′-oxo-5′,6′-dihydrospiro[cyclohexane-1,4′-thieno[2,3-c]pyrrol]-2′-yl)amino)pyrimidin-4-yl)cyclopropanecarboxamide] | 100 to 1000 nM
17 | O=C(Nc1cc(Nc2cc3c(s2)C(=O)NC32CCCCC2)ncn1)c1ccccc1 [Compound XX-E, N-(6-((6′-oxo-5′,6′-dihydrospiro[cyclohexane-1,4′-thieno[2,3-c]pyrrol]-2′-yl)amino)pyrimidin-4-yl)benzamide] | 10 to 100 nM
18 | Nc1cc(Nc2sc3c(c2Cl)C2(CCCCC2)NC3=O)ncn1 [Compound XXI, 2′-((6-Aminopyrimidin-4-yl)amino)-3′-chlorospiro[cyclohexane-1,4′-thieno[2,3-c]pyrrol]-6′(5′H)-one] | 100 to 1000 nM
19 | Nc1cc(Nc2cc3c(s2)C(=O)NC32CCOCC2)ncn1 [Compound XXII, 2′-((6-Aminopyrimidin-4-yl)amino)-2,3,5,6-tetrahydrospiro[pyran-4,4′-thieno[2,3-c]pyrrol]-6′(5′H)-one] | 10 to 100 nM
20 | CNc1cc(Nc2cc3c(s2)C(=O)NC32CCCCC2)ncn1 [Compound XXIII, 2′-((6-(Methylamino)pyrimidin-4-yl)amino)spiro[cyclohexane-1,4′-thieno[2,3-c]pyrrol]-6′(5′H)-one] | 10 to 100 nM
21 | CN(C)CCNc1cc(Nc2cc3c(s2)C(=O)NC32CCCCC2)ncn1 [Compound XXIII-A, 2′-((6-((2-(Dimethylamino)ethyl)amino)pyrimidin-4-yl)amino)spiro [cyclohexane-1,4′-thieno[2,3-c]pyrrol]-6′(5′H)-one] | 100 to 1000 nM
22 | O=C1NC2(CCCCC2)c2cc(Nc3cc(Nc4ccccc4)ncn3)sc21 [Compound XXIII-B, 2′-((6-(Phenylamino)pyrimidin-4-yl)amino)spiro[cyclohexane-1,4′-thieno[2,3-c]pyrrol]-6′(5′H)-one] | 10 to 100 nM
23 | NC1CCN(c2cc(Nc3cc4c(s3)C(=O)NC43CCCCC3)ncn2)C1 (centres unmarked) [Compound XXIII-D, 2′-((6-(3-Aminopyrrolidin-1-yl)pyrimidin-4-yl)amino)spiro[cyclohexane-1,4′-thieno[2,3-c]pyrrol]-6′(5′H)-one] | > 1000 nM
24 | O=C1NC2(CCCCC2)c2cc(Nc3cc(N4CCCCC4)ncn3)sc21 [Compound XXIII-E, 2′-((6-(Piperidin-1-yl)pyrimidin-4-yl)amino)spiro[cyclohexane-1,4′-thieno[2,3-c]pyrrol]-6′(5′H)-one] | > 1000 nM
25 | O=C1NC2(CCCCC2)c2cc(Nc3ncnc4sc5c(c34)CCCC5)sc21 [Compound XXIII-F, 2′-((5,6,7,8-Tetrahydrobenzo[4,5]thieno[2,3-d]pyrimidin-4-yl)amino)spiro [cyclohexane-1,4′-thieno[2,3-c]pyrrol]-6′(5′H)-one] | 10 to 100 nM
26 | O=C1NC2(CCCCC2)c2cc(Nc3cc(Cl)ncn3)sc21 [Compound XXIII-G, 2′-((6-Chloropyrimidin-4-yl)amino)spiro[cyclohexane-1,4′-thieno[2,3-c]pyrrol]-6′(5′H)-one] | 10 to 100 nM
